This note sets out measurements from patent publication US9018208B2, “Heterocycles as potassium channel modulators” (Icagen Inc., priority 2007, dated 2015).

The test system of data set [1] is SH-SY5Y M-currents (KCNQ2, KCNQ3 and KCNQ5). The data set is described as follows: SH-SY5Y native cell line FLIPR assay (voltage-sensitive dye DiBAC). The class given is cell-based, mouse neuroblastoma, rat glioma hybrid cell line. The note with it: SH-SY5Y native cell line, read-out: SH-SY5Y EC50. A digest of the protocol:
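Response is peak DiBAC fluorescence change, normalised to the maximum from a positive control agent, sampled every 30 s over 25 min. Before compound addition, SH-SY5Y cells differentiated with PGE1 plus isomethylbutylxanthine were dye-loaded for 1 h in EBSS with […] DiBAC.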

The nature of data set [2]: Metabolic stability in rats after oral administration (mass spectrometry). It is filed as in vivo, rat. As to conditions: result in words. From the text: Metabolite 14% of parent for compound 65 and metabolite 35% of parent for compound 366 were observed.
The subject of data set [3] is carrageenan-induced thermal hyperalgesia, Sprague Dawley rats. The data set is described as follows: In vivo rat model for inflammatory pain (carrageenan, thermal hyperalgesia). The note with it: oral, carrageenan paw, thermal escape latency. The protocol: Compounds with anti-hyperalgesic activity will increase (or lengthen) the escape latency of the inflamed paw.
To induce a local inflammation, 50 μL of a 1% solution of λ-carrageenan in sterile water is injected subcutaneously into the plantar surface of the right hind paw of the rat (Sprague Dawley rats, sample size=8 per treatment group). The KCNQ openers typically at doses ranging from 1-100 mg/kg were homogenized in either 0.5% carboxymethylcellulose in water or 0.5% methylcellulose in water and administered orally through a steel 18-gauge rat gavage tube in a volume of 2 mL/kg of body weight 30 minutes prior to carrageenan injection. After carrageenan injection behavioral testing is conducted at the appropriate time following opener or vehicle administration (generally Tmax, the time of maximum plasma levels of the compound being tested). To assess the thermally evoked paw withdrawal response, a commercially available Hargreaves Box was used (UCSD Department of Anesthesiology, San Diego; La Jolla, Calif., stimulus intensity 5.25 amps). Rats were placed on a thin glass surface in individual chambers made of clear plastic. […] The time to withdrawal response is measured in seconds and assigned as the response latency. […]

For data set [4], the system named is electroshock seizure, Male Wistar rats. Put plainly: In vivo rat assay for anti-convulsant activity (rat MES, electroshock seizure). As to conditions: for ED50: Rattus norvegicus, po, rat MES dose-response; for Rat MES activity: single dose screening, oral, typically 10 mg/kg, animals protected from hind limb extension. The protocol:
Male Wistar rats were housed 4 per cage on a regular light/dark cycle (lights on 0600-1800) for one week prior to anti-convulsant testing. The apparatus used to induce electroshock seizure was obtained from Walhquist Instrument Co., Salt Lake City, Utah. The shock level was set at 150 mA and the duration at 0.2 seconds. A drop of 1% proparacaine solution was placed in each eye of a rat, the electrodes were placed over the eyes, and the shock was administered. Latency to hind limb extension was measured to the nearest 0.1 second.
The KCNQ opener was homogenized in either 0.5% carboxymethylcellulose in water or 0.5% methylcellulose in water) and administered orally through a steel 18-gauge rat gavage tube in a volume of 2 mL/kg of body weight. In the single dose screening assay, latency to seizure for the vehicle group and the KCNQ opener group were compared using t-test. Typically a dose of 10 mg/kg of the opener is used. However, openers can be run n a dose-response experiment where doses of 1, 3, 10 and 30 mg/Kg are used.
In the single dose screening assay, latency to seizure for the vehicle and the 10 mg/kg groups were compared using t-test. Latencies to seizure in the dose response studies were submitted to analysis of variance and all dose groups were compared to vehicle using Dunnett's method (JMP© ver 5.1, SAS). In all cases an effect was considered significant if p≦0.05.

Data set [5] deals with tactile allodynia following L5 nerve ligation, Male Sprague-Dawley rats. Put plainly: In vivo rat assay for neuropathic pain (L5 spinal nerve ligation, Von Frey tactile allodynia). As to conditions: oral, Von Frey 50% paw withdrawal threshold after L5 ligation. The text has this: A neuropathic pain condition is induced in rats using a nerve injury model similar to the method described by Kim and Chung (Kim, S. H. & Chung, J. M. (1992) Pain 50:355-363). Rats (Male Sprague-Dawley, Charles River, Wilmington, Mass.) weighing 200-300 grams were utilized. Food and water was available ad libitum except during testing) are anesthetized with halothane and the L5 spinal nerve is exposed, carefully isolated, and tightly ligated with 4.0 silk suture distal to the dorsal root ganglia. The wounds are sutured and the animals are allowed to recover in individual cages. To test the effect of a KCNQ opener on tactile allodynia following L5 nerve ligation, Von Frey tactile withdrawal thresholds are determined. Test animals are placed in a box separated by walls with a wire mesh floor allowing access to the plantar surface of the paw. […] Failure to lift the hind paw after 4 seconds is scored as a negative response and the next ascending hair is applied. […]
Baseline measurements of allodynia are performed immediately prior to subject selection and compound administration. […] Additional paw withdrawal thresholds are measured at various time intervals after compound administration. Examples 153 and 19 were evaluated in this assay.

Like-named read-outs stand apart in the source and are kept apart here.

Broadly, the EC50 is the concentration at which the effect is half-maximal. For the molecule `CC(C)(C)CC(=O)Nc1nc2ccc(C(F)(F)F)cn2c1C1CC1` [Compound 65, N-(3-cyclopropyl-6-(trifluoromethyl)imidazo[1,2-a]pyridin-2-yl)-3,3-dimethylbutanamide], in data set [1] (FLIPR assay, Table 1), the EC50 was 500 to 3000 nM. The metabolism in rats result in data set [2] is reported as “undergo metabolism at the terminal carbon of the t-butyl group”.

For orientation: ED50 means the midpoint of the dose-response relation. Lower therefore signals an effect at a small dose. `CC(C)(C)CC(=O)Nc1nc2ccc(F)cn2c1-c1ccc(OC(F)(F)F)cc1` [Compound 153, N-(6-fluoro-3(4-(trifluoromethoxy)phenyl)imidazo[1,2-a]pyridin-2-yl)-3,3-dimethylbutanamide]: in data set [1] (FLIPR assay, Table 2), the EC50 was less than 500 nM. Moreover, the values for the ED50 in data set [3], in data set [4] and in data set [5] were 0.5 to 1 mg/kg, 0.5 mg/kg and 1.9 mg/kg, respectively. Besides, in data set [4], the “Rat MES activity” value was “+++ (+++ 7-8 animals protected)”.

For `CC(C)(CC(=O)Nc1nc2ccc(F)cn2c1-c1cc(C(F)(F)F)ccn1)C(F)(F)F` [Compound 433, 4,4,4-trifluoro-N-(6-fluoro-3-(4-(trifluoromethyl)pyridin-2-yl)imidazo[1,2-a]pyridin-2-yl)-3,3-dimethylbutanamide], the EC50 in data set [1] (FLIPR assay (Table 6)) lay in the range of 500 to 3000 nM. In data set [4], this molecule registered an ED50 of 3.9 mg/kg. Further, the metabolism in rats entry in data set [2] was “little or no metabolism”.

On to `CC(C)(C)CC(=O)Nc1nc2ccc(F)cn2c1-c1cc(C(F)(F)F)ccn1` [Compound 366, N-(6-fluoro-3-(4-(trifluoromethyl)pyridin-2-yl)imidazo[1,2-a]pyridin-2-yl)-3,3-dimethylbutanamide], for which the EC50 in data set [1] (FLIPR assay (Table 3)) is less than 500 nM. The metabolism in rats result in data set [2] is reported as “undergo metabolism at the terminal carbon of the t-butyl group”.

For the molecule `CC(C)(C)CC(=O)Nc1nc2ccc(F)cn2c1-c1ccc(C(F)(F)F)cc1` [Compound 128, N-(6-fluoro-3-(4-(trifluoromethyl)phenyl)imidazo[1,2-a]pyridin-2-yl)-3,3-dimethylbutanamide], in data set [1] (FLIPR assay, Table 2), the EC50 was less than 500 nM. Moreover, the “Rat MES activity” value in data set [4] is listed as “+++ (+++ 7-8 animals protected)”.

For the molecule `CC(C)(C)Cc1c(NC(=O)C2CCCC2)nc2ccc(C(F)(F)F)cn12` [Compound 51, N-(3-neopentyl-6-(trifluoromethyl)imidazo[1,2-a]pyridin-2-yl)cyclopentanecarboxamide], the EC50 in data set [1] (FLIPR assay, Table 1) was less than 500 nM. Besides, the “Rat MES activity” value in data set [4] is on record as “++ (++ 4-6 animals protected)”.

With `CC(C)(C)CC(=O)Nc1nc2ccccn2c1-c1ccc(OC(F)(F)F)cc1` [Compound 225, 3,3-dimethyl-N-(3-(4-(trifluoromethoxy)phenyl)imidazo[1,2-a]pyridin-2-yl)butanamide], in data set [1] (FLIPR assay, Table 2), the EC50 was less than 500 nM. The “Rat MES activity” value in data set [4] is on record as “++ (++ 4-6 animals protected)”.

Take `CC(C)(CC(=O)Nc1nc2ccc(C(F)(F)F)cn2c1C1CCC1)C(F)(F)F` [Compound 431, N-(3-cyclobutyl-6-(trifluoromethyl)imidazo[1,2-a]pyridin-2-yl)-4,4,4-trifluoro-3,3-dimethylbutanamide]: in data set [1] (FLIPR assay (Table 6)), the EC50 is less than 500 nM. Moreover, in data set [4], it took a dose of 5.2 mg/kg to reach the 50% effect level (ED50) and the “Rat MES activity” value is “+++ (+++ 7-8 animals protected)”. Further, the metabolism in rats result in data set [2] is given as “little or no metabolism”.

In the case of `CC(C)(C)CC(=O)Nc1nc2ccc(C(F)(F)F)cn2c1CC(C)(C)C` [Compound 19, 3,3-dimethyl-N-(3-neopentyl-6-(trifluoromethyl)imidazo[1,2-a]pyridin-2-yl)butanamide], the EC50 in data set [1] (FLIPR assay, Table 1) is less than 500 nM. Besides, the “Rat MES activity” value in data set [4] is “+++ (+++ 7-8 animals protected)”. In data set [5], this molecule came in with an ED50 of 10 mg/kg.

`Cc1ccc2nc(NC(=O)CC(C)C(F)(F)F)c(-c3cccc(C(F)(F)F)c3)n2n1` (stereo not drawn) [Compound 316, 4,4,4-trifluoro-3-methyl-N-(6-methyl-3-(3-(trifluoromethyl)phenyl)imidazo[1,2-b]pyridazin-2-yl)butanamide]: in data set [1] (FLIPR assay, Table 2), the EC50 was less than 500 nM. The “Rat MES activity” value in data set [4] is reported as “++ (++ 4-6 animals protected)”.
